According to paper PMC9035832, “Synthesis and Evaluation of a Non-Peptide Small-Molecule Drug Conjugate Targeting Integrin αVβ3” (Frontiers in Chemistry, 2022):
Where two headings read alike, the source gives them in different places.

Columns and labels:
integrin α5β1 = target: T1, integrin α5β1 (Homo sapiens, UniProt P05556+P08648); experiment: ELISA-like competitive integrin binding assay (fibronectin-coated plates)
T1 construct: using the isolated extracellular domain of integrins αVβ3 and α5β1; purchased R&D
Procedure: (§1) An ELISA-like assay using the isolated extracellular domain of integrins αVβ3 and α5β1 was performed in flat-bottom 96-well immuno plates (Brand) to determine the activities of the synthesized compounds. All wells were coated overnight with the native integrin ligand vitronectin or fibronectin (1) (Table 1) in a carbonate buffer (150 µl/well), followed by washing of each well with the PBS-T buffer (3 × 200 µl/well) (Table 1) and blocking for 1 h with the TS-B buffer (150 µl/well) at RT. […] The protein-coated assay plate was washed with the PBS-T buffer (3 × 200 µl/well), and 50 µl of the dilution series was transferred to the assay plate wells B–G. The TS-B buffer was filled into row A (100 µl/well) as the negative control and row H (50 µl/well) as the positive control. Afterward, the corresponding human integrin (2, 50 µl/well) (Table 1) in the TS-B buffer was added to row B–H and incubated for 1 h at RT. After washing the assay plate with the PBS-T buffer (3 × 200 µl/well), the primary antibody (3, 100 µl/well) (Table 1) was transferred to each well and incubated for 1 h at RT. Then the plate was washed with the PBS-T buffer (3 × 200 µl/well), treated with the secondary antibody (4, 100 µl/well) (Table 1), and incubated for 1 h at RT. The plate was washed with the PBS-T buffer (3 × 200 µl/well), and SeramunBlau® fast2 (Seramun Diagnostics GmbH, 50 µl/well) was added to each well. Staining was stopped with 3 M aq. […] The absorbance was measured with a plate reader at 450 nm and corrected by subtraction of the absorbance at 620 nm. Afterward, the resulting values were plotted and analyzed using OriginPro® 2020b where the inflection point of a DoseResp fit describes the IC50 value. All compounds were tested in duplicates or triplicates for both integrins.
(§2) The affinities (Table 4) of the RGD mimetics (Table 3) toward the integrins αVβ3 and α5β1 were determined in a competitive enzyme-linked immunosorbent assay (ELISA) using recombinant human integrins with the native ligands vitronectin and fibronectin as described in the literature ([Mas-Moruno et al., 2016b]). […]
(§3) Table S1: Proteins and buffers applied in the ELISA-like assay.
(§4) An ELISA-like assay using the isolated extracellular domain of integrins αVβ3 and α5β1 was performed in flat-bottom 96-well immuno plates (Brand) to determine the activities of the synthesised compounds.
(§5) All wells were coated overnight with the native integrin ligand vitronectin or fibronectin (Table S1, (1)) in carbonate buffer (150 µL/well), followed by washing of each well with PBS-T buffer (3×200 µL/well) (Table S1) and blocking for 1 h with TS-B buffer (150 µL/well) at RT. A dilution […]
(§6) 1:10 dilution) in TS-B buffer. The protein-coated assay plate was washed with PBS-T buffer (3×200 µL/well) and 50 µL of the dilution series was transferred to the assay plate wells B-G. TS-B buffer was filled into row A (100 µL/well) as negative control and row H (50 µL/well) as positive control. Afterwards, the corresponding human integrin (2, 50 µL/well)) (Table S1) in TS-B buffer was added to row B-H and incubated for 1 h at RT. After washing the assay plate with PBS-T buffer (3×200 µL/well) the primary antibody (3, 100 µL/well) (Table S1) was transferred to each well and incubated for 1 h at RT. Then the plate was washed with PBS-T buffer (3×200 µL/well), treated with […]

integrin αVβ3 = target: T2, integrin αVβ3 (Homo sapiens, UniProt P05106+P06756); experiment: ELISA-like competitive integrin binding assay (vitronectin-coated plates)
T2 construct: using the isolated extracellular domain of integrins αVβ3 and α5β1; purchased Sino Biological
Procedure: as §1, §2, §3, §4, §5, §6

[1] = isolated extracellular domain of human integrin α5β1, ligand fibronectin, Cilengitide as reference on all plates
[2] = isolated extracellular domain of human integrin αVβ3, ligand vitronectin, Cilengitide as reference on all plates

O=C(N[C@@H](Cc1ccc(OCCCNC2=NCCN2)cc1)C(=O)O)c1ccccc1 [5aa]
IC50 (integrin α5β1): 0.0252 ± 0.00735 µM | IC50 (integrin αVβ3): 0.0385 ± 0.0243 µM

O=C(NC(Cc1ccc(OCCCCCNc2ncccn2)cc1)C(=O)O)c1ccccc1 (stereo not shown) [7ab]
IC50 (integrin α5β1; [1]): > 10 µM | IC50 (integrin αVβ3; [2]): 8.77 µM

O=C(N[C@@H](Cc1ccc(OCCCNC2=NCCN2)cc1)C(=O)O)c1ccc(O)cc1 [5ba]
IC50 (integrin α5β1; [1]): 0.0434 ± 0.0244 µM | IC50 (integrin αVβ3; [2]): 0.0388 ± 0.0192 µM

O=C(N[C@@H](Cc1ccc(OCCCCCNc2ncccn2)cc1)C(=O)O)OCc1ccccc1 [7db]
IC50 (integrin α5β1): 8.36 µM | IC50 (integrin αVβ3): 2.63 µM

O=C(NC(Cc1ccc(OCCCCNc2ncccn2)cc1)C(=O)O)c1ccc(O)cc1 (stereo not shown) [6bb]
IC50 (integrin α5β1; [1]): > 10 µM | IC50 (integrin αVβ3; [2]): 5.29 µM

[N-]=[N+]=NCCOCCOCCOc1ccc(C(=O)N[C@@H](Cc2ccc(OCCCNC3=NCCN3)cc2)C(=O)O)cc1 [10a]
IC50 (integrin α5β1): 0.04 ± 0.0065 µM | IC50 (integrin αVβ3): 0.278 ± 0.0692 µM

O=C(N[C@@H](Cc1ccc(OCCCNc2ncccn2)cc1)C(=O)O)c1cccc(O)c1 [5cb]
IC50 (integrin α5β1): > 10 µM | IC50 (integrin αVβ3): 7.7 µM

O=C(N[C@@H](Cc1ccc(OCCCCNC2=NCCN2)cc1)C(=O)O)OCc1ccccc1 [6da]
IC50 (integrin α5β1): 0.901 ± 0.223 µM | IC50 (integrin αVβ3): 0.0012 ± 0.00011 µM

O=C(N[C@@H](Cc1ccc(OCCCCNC2=NCCN2)cc1)C(=O)O)c1ccc(O)cc1 [6ba]
IC50 (integrin α5β1): 0.0352 ± 0.0184 µM | IC50 (integrin αVβ3): 1.9 ± 0.175 µM

O=C(N[C@@H](Cc1ccc(OCCCCCNC2=NCCCN2)cc1)C(=O)O)OCc1ccccc1 [7dc]
IC50 (integrin α5β1): > 10 µM | IC50 (integrin αVβ3): 0.00293 ± 0.00012 µM

[N-]=[N+]=NCCOCCOCCOc1ccc(C(=O)N[C@@H](Cc2ccc(OCCCCCNC3=NCCN3)cc2)C(=O)O)cc1 [10c]
IC50 (integrin α5β1): 0.136 ± 0.0274 µM | IC50 (integrin αVβ3): 0.021 ± 0.00584 µM

O=C(N[C@@H](Cc1ccc(OCCCNc2ncccn2)cc1)C(=O)O)c1ccc(O)cc1 [5bb]
IC50 (integrin α5β1): > 10 µM | IC50 (integrin αVβ3): 6.53 µM

O=C(N[C@@H](Cc1ccc(OCCCCCNC2=NCCCN2)cc1)C(=O)O)c1ccc(O)cc1 [7bc]
IC50 (integrin α5β1): 0.103 ± 0.0544 µM | IC50 (integrin αVβ3): 0.0364 ± 0.0143 µM

O=C(N[C@@H](Cc1ccc(OCCCNC2=NCCCN2)cc1)C(=O)O)OCc1ccccc1 [5dc]
IC50 (integrin α5β1): 0.0716 ± 0.0161 µM | IC50 (integrin αVβ3): 0.00468 ± 0.00447 µM

O=C(NC(Cc1ccc(OCCCNc2ncccn2)cc1)C(=O)O)c1ccccc1 (stereo not shown) [5ab]
IC50 (integrin α5β1; [1]): > 10 µM | IC50 (integrin αVβ3; [2]): 1.31 µM

O=C(N[C@@H](Cc1ccc(OCCCCCNc2ncccn2)cc1)C(=O)O)c1ccc(O)cc1 [7bb]
IC50 (integrin α5β1): > 10 µM | IC50 (integrin αVβ3): 8.84 µM

O=C(NC(Cc1ccc(OCCCCCNc2ncccn2)cc1)C(=O)O)c1cccc(O)c1 (stereo not shown) [7cb]
IC50 (integrin α5β1; [1]): > 10 µM | IC50 (integrin αVβ3; [2]): 2.89 µM

O=C(N[C@@H](Cc1ccc(OCCCNc2ncccn2)cc1)C(=O)O)OCc1ccccc1 [5db]
IC50 (integrin α5β1): > 10 µM | IC50 (integrin αVβ3): 0.237 ± 0.0697 µM

O=C(N[C@@H](Cc1ccc(OCCCNC2=NCCCN2)cc1)C(=O)O)c1ccccc1 [5ac]
IC50 (integrin α5β1): 0.0174 ± 0.00334 µM | IC50 (integrin αVβ3): 0.0181 ± 0.00368 µM

[N-]=[N+]=NCCOCCOCCOc1ccc(C(=O)N[C@@H](Cc2ccc(OCCCCNC3=NCCN3)cc2)C(=O)O)cc1 [10b]
IC50 (integrin α5β1): 0.404 ± 0.282 µM | IC50 (integrin αVβ3): 0.129 ± 0.00235 µM

O=C(N[C@@H](Cc1ccc(OCCCCNC2=NCCN2)cc1)C(=O)O)c1cccc(O)c1 [6ca]
IC50 (integrin α5β1; [1]): 0.0199 ± 0.0087 µM | IC50 (integrin αVβ3; [2]): 0.00101 ± 0.00056 µM

O=C(NC(Cc1ccc(OCCCCCNC2=NCCN2)cc1)C(=O)O)c1ccc(O)cc1 (stereo not shown) [7ba]
IC50 (integrin α5β1; [1]): 1.65 µM | IC50 (integrin αVβ3; [2]): 0.00201 ± 0.0004 µM

O=C(N[C@@H](Cc1ccc(OCCCCCNC2=NCCCN2)cc1)C(=O)O)c1cccc(O)c1 [7cc]
IC50 (integrin α5β1; [1]): 0.21 ± 0.0448 µM | IC50 (integrin αVβ3; [2]): 0.0429 ± 0.00947 µM

O=C(N[C@@H](Cc1ccc(OCCCCCNC2=NCCN2)cc1)C(=O)O)c1cccc(O)c1 [7ca]
IC50 (integrin α5β1): 6.08 µM | IC50 (integrin αVβ3): 0.0981 ± 0.0748 µM

O=C(N[C@@H](Cc1ccc(OCCCCCNC2=NCCN2)cc1)C(=O)O)c1ccccc1 [7aa]
IC50 (integrin α5β1): 1.69 µM | IC50 (integrin αVβ3): 0.0385 ± 0.00902 µM

O=C(NC(Cc1ccc(OCCCCNC2=NCCCN2)cc1)C(=O)O)c1ccccc1 (stereo not shown) [6ac]
IC50 (integrin α5β1; [1]): 0.0175 ± 0.00676 µM | IC50 (integrin αVβ3; [2]): 0.0328 ± 0.0176 µM

O=C(N[C@@H](Cc1ccc(OCCCCCNC2=NCCCN2)cc1)C(=O)O)c1ccccc1 [7ac]
IC50 (integrin α5β1): 2.77 µM | IC50 (integrin αVβ3): 0.0588 ± 0.0144 µM

O=C(N[C@@H](Cc1ccc(OCCCCNC2=NCCCN2)cc1)C(=O)O)c1ccc(O)cc1 [6bc]
IC50 (integrin α5β1): 0.511 ± 0.183 µM | IC50 (integrin αVβ3): 0.0387 ± 0.0155 µM

O=C(NC(Cc1ccc(OCCCCNc2ncccn2)cc1)C(=O)O)c1cccc(O)c1 (stereo not shown) [6cb]
IC50 (integrin α5β1; [1]): > 10 µM | IC50 (integrin αVβ3; [2]): 1.85 ± 0.241 µM

O=C(N[C@@H](Cc1ccc(OCCCCNC2=NCCCN2)cc1)C(=O)O)OCc1ccccc1 [6dc]
IC50 (integrin α5β1): 0.745 ± 0.117 µM | IC50 (integrin αVβ3): 0.00057 ± 3e-05 µM

O=C(N[C@@H](Cc1ccc(OCCCCNC2=NCCN2)cc1)C(=O)O)c1ccccc1 [6aa]
IC50 (integrin α5β1): 0.175 ± 0.0737 µM | IC50 (integrin αVβ3): 0.0258 ± 0.00677 µM

O=C(N[C@@H](Cc1ccc(OCCCCCNC2=NCCN2)cc1)C(=O)O)OCc1ccccc1 [7da]
IC50 (integrin α5β1): 7.75 µM | IC50 (integrin αVβ3): 0.00376 ± 0.00198 µM

O=C(N[C@@H](Cc1ccc(OCCCCNC2=NCCCN2)cc1)C(=O)O)c1cccc(O)c1 [6cc]
IC50 (integrin α5β1): 0.107 ± 0.032 µM | IC50 (integrin αVβ3): 0.0904 ± 0.0313 µM

O=C(N[C@@H](Cc1ccc(OCCCCNc2ncccn2)cc1)C(=O)O)c1ccccc1 [6ab]
IC50 (integrin α5β1): > 10 µM | IC50 (integrin αVβ3): 6.17 µM

O=C(N[C@@H](Cc1ccc(OCCCNC2=NCCN2)cc1)C(=O)O)OCc1ccccc1 [5da]
IC50 (integrin α5β1): 0.162 ± 0.036 µM | IC50 (integrin αVβ3): 0.00132 ± 0.00011 µM

O=C(N[C@@H](Cc1ccc(OCCCNC2=NCCCN2)cc1)C(=O)O)c1cccc(O)c1 [5cc]
IC50 (integrin α5β1): 0.0328 ± 0.0112 µM | IC50 (integrin αVβ3): 0.452 ± 0.12 µM

O=C(N[C@@H](Cc1ccc(OCCCNC2=NCCN2)cc1)C(=O)O)c1cccc(O)c1 [5ca]
IC50 (integrin α5β1): 0.0305 ± 0.0207 µM | IC50 (integrin αVβ3): 0.00929 ± 0.00577 µM

O=C(NC(Cc1ccc(OCCCNC2=NCCCN2)cc1)C(=O)O)c1ccc(O)cc1 (stereo not shown) [5bc]
IC50 (integrin α5β1; [1]): 0.0185 ± 0.00365 µM | IC50 (integrin αVβ3; [2]): 0.0704 ± 0.00057 µM
